Values of other authors in US11103587B2, “Multiple oligonucleotide moieties on peptide carrier” (Genzyme Corporation, priority 2014, dated 2021).

What was measured:
[1] = tested on: exon 23 of the mRNA encoding for dystrophin; settings: mdx mouse, cited from earlier work
[2] = mice; cited from earlier work

GGCCAAACCTCGGCTTACCTGAAAT (PMO backbone, chemistry not fully specified) [PMO23, PMO designed to skip exon 23 of the mRNA encoding for dystrophin]
skipping of exon 23 in cardiac muscle ([1]; cardiac muscle): does not effect exon 23 skipping in cardiac muscle
skipping of exon 23 in skeletal muscle ([1]; skeletal muscle): < 15%
amount administered without any noticeable toxic effects [2]: ≤ 250 mg/kg
